Test results: patent publication US10836734B2, “Spiroquinone derivative compound, production method thereof, and pharamaceutical composition for preventing or treating neurological disorders which contains same as active ingredient” (GACHON UNIVERSITY OF INDUSTRY-ACADEMIC COOPERATION …, priority 2016, dated 2020)

Experiments:
[1] = target: acetylcholine esterase (eeAChE, EC 3.1.1.7) (Electrophorus electricus, UniProt O42275); test: Acetylcholine esterase inhibition activity (ACh quantification colorimetric assay kit); format: biochemical; conditions: read-out: Residual activity of acetylcholine esterase (%); for remaining activity at 10 µM: 10 μM compound; for remaining activity at 30 µM: 30 μM compound
Sequence of acetylcholine esterase (eeAChE, EC 3.1.1.7) (O42275 24-633): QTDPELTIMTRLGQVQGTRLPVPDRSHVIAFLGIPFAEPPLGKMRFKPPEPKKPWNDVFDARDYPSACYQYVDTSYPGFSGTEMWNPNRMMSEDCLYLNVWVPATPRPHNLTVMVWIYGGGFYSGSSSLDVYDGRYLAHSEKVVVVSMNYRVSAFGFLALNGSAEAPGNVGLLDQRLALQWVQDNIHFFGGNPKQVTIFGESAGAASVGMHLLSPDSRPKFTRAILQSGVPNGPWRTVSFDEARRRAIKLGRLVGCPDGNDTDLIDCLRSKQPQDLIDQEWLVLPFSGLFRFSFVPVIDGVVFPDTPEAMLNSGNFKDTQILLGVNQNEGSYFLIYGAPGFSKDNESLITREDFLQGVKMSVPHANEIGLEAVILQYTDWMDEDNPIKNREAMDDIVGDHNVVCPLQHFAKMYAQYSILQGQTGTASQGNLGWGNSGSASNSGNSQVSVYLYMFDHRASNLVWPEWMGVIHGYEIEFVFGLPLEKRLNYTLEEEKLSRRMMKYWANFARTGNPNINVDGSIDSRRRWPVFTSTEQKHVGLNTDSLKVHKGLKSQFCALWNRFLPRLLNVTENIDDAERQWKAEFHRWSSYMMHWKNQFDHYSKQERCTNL
Method: Particularly, a quantitative kit (ACh quantification colorimetric assay kit from BioVision) was prepared in order to quantify acetylcholine esterase (eeAChE, EC 3.1.1.7) and acetylcholine chloride (ACh) of Electrophorus electricus and acetylcholine. To measure the enzyme inhibition activity of the compound of the example of the invention, the following experiment was performed based on the standardized method of the manufacturer of the Ach kit (Draczkowski, P. et al. Bba-Gen Subjects 1860, 967-974, doi:10.1016/j.bbagen.2015.11.006 (2016)).
First, acetylcholine esterase (eeAChE, EC 3.1.1.7) was dissolved in […] Tris-HCL buffer at the concentration of 5 μM. Acetylcholine chloride was dissolved in 20 mM Tris-HCL buffer, resulting in the preparation of a Tris-HCL aqueous solution containing 10 μM acetylcholine chloride. The compound of the example was prepared in different concentrations of 10 μM and 30 μM. The prepared acetylcholine chloride solution and the compound solution were mixed in 20 μM acetylcholine esterase. 20 minutes and 30 minutes after mixing, the color change of the quantitative kit was measured at 570 nm in order to evaluate the inhibitory effect of the compound particularly to inhibit acetylcholine esterase that decomposes acetylcholine into choline.
All the experiments were repeated at least twice, from which the mean values and the standard deviations were calculated.

[2] = system: murine microglial BV-2 cells; test: Quantification of nitrite generation in LPS treated nerve cell line; format: cell-based; conditions: Mus musculus; LPS treated BV-2 cells; FIG. 5; read-out: IC50 for nitric oxide
Method: Particularly, in order to quantify the nitrite generation in the LPS treated nerve cell line, nitrite generated from nitric oxide secreted therein was quantified. With the quantified nitrite, the inhibition of microglial activation and the neuron protection effect thereby were examined. The nerve cell line (BV2) was treated with LPS ([…]), and then treated with the compound of the present invention at different concentrations of 0.01 μM, 0.1 μM and 1 μM, or 1 μM, 5 μM and 10 μM (Con: DMSO treated group (not treated with the compound of the invention and LPS), LPS: LPS treated group ([…])).
Further, IC50 was calculated from the quantification of nitric oxide measured by concentration gradient in FIGS. 1 and 3, and the results are shown in FIG. 5.

How did the remaining activity at 10 µM [1] turn out when `CC1COC2(C=CC(=O)C=C2)N(c2ccccc2)C1=O` (stereo not drawn) [Example 2, 3-methyl-5-phenyl-1-oxa-5-azaspiro[5,5]undeca-7,10-diene-4,9-dione] was run?
Its remaining activity at 10 µM is 29.7%.

And the remaining activity at 30 µM [1]?
Its remaining activity at 30 µM is 7.03%.

`C=CCC1COC2(C=CC(=O)C=C2)N(c2ccccc2)C1=O` (stereo not drawn) [Example 3, 3-allyl-5-phenyl-1-oxa-5-azaspiro[5,5]undeca-7,10-diene-4,9-dione] was tested. Which remaining activity at 10 µM [1] did it give?
Its remaining activity at 10 µM is 30.3%.

And the remaining activity at 30 µM [1]?
The remaining activity at 30 µM was -2.03%.

For `O=C1C=CC2(C=C1)OCC(Cc1ccccc1)C(=O)N2c1ccccc1` (stereo not drawn) [Example 6, 3-benzyl-5-phenyl-1-oxa-5-azaspiro[5,5]undeca-7,10-diene-4,9-dione], which remaining activity at 10 µM [1] is on record?
The remaining activity at 10 µM was 40.2%.

What about the remaining activity at 30 µM [1] of the same compound?
Its remaining activity at 30 µM is 6.07%.

Which results are given for `O=C1C=CC2(C=C1)OCC(Cc1ccc(F)cc1)C(=O)N2c1ccccc1` (stereo not drawn) [Example 7, 3-(4-fluoro-benzyl)-5-phenyl-1-oxa-5-azaspiro[5,5]undeca-7,10-diene-4,9-dione]?
remaining activity at 10 µM [1]: 46.7%; remaining activity at 30 µM [1]: 4.74%

Which results are given for `O=C1C=CC2(C=C1)OCC(Cc1ccc(Br)cc1)C(=O)N2c1ccccc1` (stereo not drawn) [Example 10, 3-(4-bromo-benzyl)-5-phenyl-1-oxa-5-azaspiro[5,5]undeca-7,10-diene-4,9-dione]?
remaining activity at 10 µM [1]: 27.3%; remaining activity at 30 µM [1]: 12.9%

`O=C1C=CC2(C=C1)OCC(Cc1ccc(C(F)(F)F)cc1)C(=O)N2c1ccccc1` (stereo not drawn) [Example 11, 3-(4-trifluoromethyl-benzyl)-5-phenyl-1-oxa-5-azaspiro[5,5]undeca-7,10-diene-4,9-dione] was tested. Which remaining activity at 10 µM [1] did it give?
Its remaining activity at 10 µM is 69.4%.

What about the remaining activity at 30 µM [1] of the same compound?
The remaining activity at 30 µM was 22.1%.

`O=C1C=CC2(C=C1)OCC(Cc1cc(C(F)(F)F)cc(C(F)(F)F)c1)C(=O)N2c1ccccc1` (stereo not drawn) [Example 14, 3-(3,5-ditrifluoromethyl-benzyl)-5-phenyl-1-oxa-5-azaspiro[5,5]undeca-7,10-diene-4,9-dione] was tested. Which IC50 [2] did it give?
Its IC50 is roughly 300 nM.

For `O=C1C=CC2(C=C1)OCC(Cc1ccccc1)C(=O)N2c1cccnc1` (stereo not drawn) [Example 19, 3-benzyl-5-(pyridine-3-yl)-1-oxa-5-azaspiro[5,5]undeca-7,10-diene-4,9-dione], which remaining activity at 10 µM [1] is on record?
Its remaining activity at 10 µM is 66.1%.

What about the remaining activity at 30 µM [1] of the same compound?
The remaining activity at 30 µM was 8.07%.

Which remaining activity at 10 µM [1] does the source give for `CC1COC2(C=CC(=O)C(F)=C2)N(c2ccccc2)C1=O` (stereo not drawn) [Example 22, 3-methyl-8-fluoro-5-phenyl-1-oxa-5-azaspiro[5,5]undeca-7,10-diene-4,9-dione] here?
The remaining activity at 10 µM was 51.6%.

What about the remaining activity at 30 µM [1] of the same compound?
Its remaining activity at 30 µM is 2.47%.

With `C=CCC1COC2(C=CC(=O)C(F)=C2)N(c2ccccc2)C1=O` (stereo not drawn) [Example 23, 3-allyl-8-fluoro-5-phenyl-1-oxa-5-azaspiro[5,5]undeca-7,10-diene-4,9-dione] as the compound, how does the remaining activity at 10 µM [1] read?
The remaining activity at 10 µM was 38.1%.

And the remaining activity at 30 µM [1]?
Its remaining activity at 30 µM is 5.64%.

With `O=C1C=CC2(C=C1F)OCC(Cc1ccccc1)C(=O)N2c1ccccc1` (stereo not drawn) [Example 24, 3-benzyl-8-fluoro-5-phenyl-1-oxa-5-azaspiro[5,5]undeca-7,10-diene-4,9-dione] as the compound, how does the remaining activity at 10 µM [1] read?
The remaining activity at 10 µM was 35.6%.

What about the remaining activity at 30 µM [1] of the same compound?
Its remaining activity at 30 µM is 8.89%.

For `CC1=CC2(C=CC1=O)OCC(C)C(=O)N2c1ccccc1` (stereo not drawn) [Example 25, 3,8-dimethyl-5-phenyl-1-oxa-5-azaspiro[5,5]undeca-7,10-diene-4,9-dione], which remaining activity at 10 µM [1] is on record?
Its remaining activity at 10 µM is 20.9%.

And the remaining activity at 30 µM [1]?
The remaining activity at 30 µM was 8.15%.

For `CC1=CC2(C=CC1=O)OCC(Cc1ccccc1)C(=O)N2c1ccccc1` (stereo not drawn) [Example 28, 3-benzyl-8-methyl-5-phenyl-1-oxa-5-azaspiro[5,5]undeca-7,10-diene-4,9-dione], which remaining activity at 10 µM [1] is on record?
Its remaining activity at 10 µM is 55.4%.

What about the remaining activity at 30 µM [1] of the same compound?
Its remaining activity at 30 µM is 3.08%.

Which remaining activity at 10 µM [1] does the source give for `CN1C(=O)C(Cc2ccccc2)COC12C=CC(=O)C=C2` (stereo not drawn) [Example 33, 3-benzyl-5-methyl-1-oxa-5-azaspiro[5,5]undeca-7,10-diene-4,9-dione] here?
The remaining activity at 10 µM was 50.5%.

And the remaining activity at 30 µM [1]?
Its remaining activity at 30 µM is 2.08%.
